Test results taken from patent US10508089B2, “Use of N-(1,3,4-Oxadiazol-2-yl)arylcarboxamides or their salts for controlling unwanted plants in areas of transgenic crop plants being tolerant to HPPD inhibitor herbicides” (BASF SE, priority 2014, dated 2019).

How the values were obtained:
Avena HPPD SEQ ID No 2 = Avena HPPD SEQ ID No 2 (Avena sativa, UniProt A0ACD5V6K6); assay: Determination of HPPD activity in presence of N-(1,3,4-Oxadiazol-2-yl)arylcarboxamides (pI50); type: biochemical; conditions: negative log of molar concentration; inhibitor 0.1 to 100 μM; room temperature; 600 μM HPP
Chain of Avena HPPD SEQ ID No 2 (A0ACD5V6K6 entry or part of it): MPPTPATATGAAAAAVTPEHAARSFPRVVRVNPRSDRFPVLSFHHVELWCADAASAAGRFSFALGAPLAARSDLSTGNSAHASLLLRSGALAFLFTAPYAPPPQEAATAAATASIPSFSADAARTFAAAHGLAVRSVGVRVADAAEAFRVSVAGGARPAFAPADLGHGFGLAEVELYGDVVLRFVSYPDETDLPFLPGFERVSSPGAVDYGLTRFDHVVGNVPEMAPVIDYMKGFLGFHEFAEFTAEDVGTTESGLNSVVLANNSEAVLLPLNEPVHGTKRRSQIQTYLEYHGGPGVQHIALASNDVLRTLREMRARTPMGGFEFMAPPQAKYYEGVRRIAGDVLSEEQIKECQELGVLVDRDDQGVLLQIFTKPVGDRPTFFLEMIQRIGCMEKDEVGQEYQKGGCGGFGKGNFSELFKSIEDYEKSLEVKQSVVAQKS
Experimental: (§1) HPPD activity was measured at room temperature by adding appropriate amounts of HPPD to a solution of 200 mM Tris-HCl pH 7.6, 10 mM ascorbate, 20 μM FeSO4, 650 units of catalase, 8 μg HGA dioxygenase (HGA: homogentisate) and 600 μM HPP in a total volume of 1 ml. Initial reaction rates in the absence or presence of inhibitors were determined from the increase in absorbance at 318 nm due to the formation of maleylacetoacetate (ϵ318=11,900 M−1 cm−1). pI50-values (the negative log values of the concentration of inhibitor necessary to inhibit 50% of the enzyme activity in molar concentration were determined from dose-response plots of HPPD activity versus inhibitor concentrations tested (0.1 to 100 μM) using the 4 Parameter Logistic Model or Sigmoidal Dose-Response Model of the ID Business Solutions Ltd. XLfit software suite. Due to the UV absorption of the HPPD inhibitors tested, inhibitor concentrations >100 μM could not be tested. In cases, the symbol “>” is used this means that the value was far higher than the one indicated but could not be precisely calculated within in the range of concentration of inhibitor tested.
(§2) In the 1st column of Table 8, the chemical compound employed in the assay is named (according to the numbering of the Tables 1 to 7, above). In columns 2, 3, 4, and 5 the pI50-values of the corresponding chemical compounds against various HPPD enzymes (name and SEQ ID Nos are indicated, respectively) are given.

FMP 37 SEQ ID No 9 = FMP 37 SEQ ID No 9 (Blepharisma japonicum, UniProt A8R3H6); assay: as above; type: biochemical; conditions: negative log of molar concentration; inhibitor 0.1 to 100 μM; room temperature; 600 μM HPP
Chain of FMP 37 SEQ ID No 9 (A8R3H6 entry or part of it): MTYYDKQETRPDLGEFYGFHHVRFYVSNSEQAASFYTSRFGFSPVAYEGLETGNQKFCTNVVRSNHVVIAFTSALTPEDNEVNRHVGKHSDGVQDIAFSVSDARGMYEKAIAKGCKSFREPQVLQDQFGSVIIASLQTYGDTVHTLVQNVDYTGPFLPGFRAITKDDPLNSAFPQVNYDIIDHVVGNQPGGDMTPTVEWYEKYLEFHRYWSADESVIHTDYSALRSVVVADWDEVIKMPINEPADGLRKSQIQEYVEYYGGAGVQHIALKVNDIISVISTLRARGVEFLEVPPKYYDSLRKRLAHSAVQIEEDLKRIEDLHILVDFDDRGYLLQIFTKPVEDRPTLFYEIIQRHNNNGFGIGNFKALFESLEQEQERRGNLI
Experimental: as §1, §2

[1] = biological target: PfHPPD Evo 41 SEQ ID No 29 (Pseudomonas sp., UniProt P80064, A172V/A339Q/A53E/D148E/D45N/E105D/E287Q/E300V/E334P/F143Y/G286D/G335W/H150N/H254A/H63N/I158V/I187A/I249V/K338A/K92N/L18F/N24G/N280D/S245T/S257K/S301E/T205S/V65I); assay: biochemical; parameters: species or system Pseudomonas fluorescens
Chain of PfHPPD Evo 41 SEQ ID No 29 (P80064 1-354 with tags or gaps with the stated changes limits assumed): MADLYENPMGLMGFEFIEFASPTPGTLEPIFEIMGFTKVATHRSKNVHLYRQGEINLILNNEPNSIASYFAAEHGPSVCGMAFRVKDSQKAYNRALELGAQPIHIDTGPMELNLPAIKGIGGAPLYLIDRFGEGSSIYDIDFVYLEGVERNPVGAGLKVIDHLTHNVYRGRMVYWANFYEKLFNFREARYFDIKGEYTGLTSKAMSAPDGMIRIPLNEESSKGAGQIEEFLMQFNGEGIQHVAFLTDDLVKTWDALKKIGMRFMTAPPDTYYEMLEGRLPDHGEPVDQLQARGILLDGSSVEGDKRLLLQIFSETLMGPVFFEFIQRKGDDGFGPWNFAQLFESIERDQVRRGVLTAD

[2] = biological target: PfHPPD Evo 40 SEQ ID No 27 (Pseudomonas sp., UniProt P80064, A172V/A339E/A53E/D148E/D45N/E105D/E287Q/E300V/E334P/F143Y/G286D/G335S/H150N/H254A/H63N/I158V/I187A/I249V/K92N/L18F/N24G/N280D/S245T/S257K/S301E/T205S/V65I); assay: biochemical; parameters: species or system Pseudomonas fluorescens
Chain of PfHPPD Evo 40 SEQ ID No 27 (P80064 1-354 with tags or gaps with the stated changes limits assumed): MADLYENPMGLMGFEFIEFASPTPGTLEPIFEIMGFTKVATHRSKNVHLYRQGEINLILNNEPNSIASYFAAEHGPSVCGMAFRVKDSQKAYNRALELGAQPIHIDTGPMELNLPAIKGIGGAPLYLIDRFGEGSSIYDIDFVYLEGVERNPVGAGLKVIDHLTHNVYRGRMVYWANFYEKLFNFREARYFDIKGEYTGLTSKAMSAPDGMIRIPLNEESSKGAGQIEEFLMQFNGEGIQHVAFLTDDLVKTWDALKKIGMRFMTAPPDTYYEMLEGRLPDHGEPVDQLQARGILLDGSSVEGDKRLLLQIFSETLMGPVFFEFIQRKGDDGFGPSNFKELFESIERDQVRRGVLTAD

PfHPPDEvo40 = PfHPPDEvo40 (Pseudomonas sp., UniProt P80064, A172V/A339E/A53E/D148E/D45N/E105D/E287Q/E300V/E334P/F143Y/G286D/G335S/H150N/H254A/H63N/I158V/I187A/I249V/K92N/L18F/N24G/N280D/S245T/S257K/S301E/T205S/V65I); assay: Brown color assay of HPPD extracts on solid media containing an HPPD inhibitor; conditions: 250 uM inhibitor in solid media
[3] = system: tolerant transgenic soybean shoots; assay: Soybean transformation, selection of shoots with HPPD inhibitor; type: in vivo; conditions: compared with untreated wild-type soybean shoots
From the text: (§3) Soybean transformation was achieved by using methods by best mode well known in the art, such as the one described using the Agrobacterium tumefaciens mediated transformation soybean half-seed explants using essentially the method described by Paz et al. (2006), Plant cell Rep. 25:206. Transformants were identified using various HPPD inhibitors tembotrione or isoxaflutole as selection marker. The appearance of green shoots can be observed, and documented as an indicator of tolerance to the respective herbicide.

wild-type soybean shoots = assay: as above; type: in vivo; conditions: wild-type soybean shoots treated with the same amount of the respective HPPD inhibitor
From the text: as §3

Compound	IC50 (Avena HPPD SEQ ID No 2)	IC50 (FMP 37 SEQ ID No 9)	IC50 [1]	IC50 [2]	tolerance of variant PfHPPDEvo40 compared to PfHPPD336W (brown pigment formation, titration of extract) (PfHPPDEvo40)	appearance of shoots under HPPD inhibitor selection [3]	appearance of shoots under HPPD inhibitor selection (wild-type soybean shoots)
Cc1nnc(NC(=O)c2ccc(C(F)(F)F)c([S+](C)[O-])c2C)o1 (centres unmarked) [Compound 2-144]	3.98 µM	12.6 µM	10 µM	6.31 µM	–	–	–
Cc1nnc(NC(=O)c2ccc(C(F)(F)F)c([S+](C)[O-])c2Cl)o1 (centres unmarked) [Compound 2-360]	3.98 µM	20 µM	20 µM	15.8 µM	–	–	–
Cc1nnc(NC(=O)c2ccc(C(F)(F)F)c(S(C)(=O)=O)c2Cl)o1 [Compound 2-361]	1.58 µM	12.6 µM	7.94 µM	5.01 µM	–	–	–
Cc1nnc(NC(=O)c2ccc(C(F)(F)F)c(-n3cccn3)c2Cl)o1 [Compound 2-363]	1.58 µM	10 µM	12.6 µM	6.31 µM	–	–	–
Cc1nnc(NC(=O)c2ccc(C(F)(F)F)c(OCCF)c2Cl)o1 [Compound 2-364]	1.58 µM	7.94 µM	31.6 µM	12.6 µM	–	–	–
COCc1nnc(NC(=O)c2ccc(C(F)(F)F)c(S(C)(=O)=O)c2C)o1 [Compound 5-145]	3.16 µM	10 µM	< 5.01 µM	< 5.01 µM	–	–	–
Cc1c(C(=O)Nc2nnc(C3CC3)o2)ccc(C(F)(F)F)c1[S+](C)[O-] (centres unmarked) [Compound 6-37]	39.8 µM	158 µM	158 µM	126 µM	–	–	–
Cc1nnc(NC(=O)c2ccc(C(F)(F)F)nc2C)o1 [Compound 7-132]	15.8 µM	7.94 µM	251 µM	200 µM	–	–	–
CS(=O)(=O)c1cc(C(F)(F)F)ccc1C(=O)C(C#N)C(=O)C1CC1 (centres unmarked) [diketonitrile]	–	–	–	–	improved tolerance	–	–
CS(=O)(=O)c1cc(C(F)(F)F)ccc1C(=O)c1cnoc1C1CC1 [isoxaflutole]	–	–	–	–	–	normal greening	entirely bleached
CS(=O)(=O)c1ccc(C(=O)C2C(=O)CCCC2=O)c(Cl)c1COCC(F)(F)F [tembotrione]	–	–	–	–	improved tolerance	normal greening	entirely bleached
